Source: ChEMBL document CHEMBL3045406, “Enantioselective Relieving Activity of α-Methylbenzylphenylureas toward Bensulfuron-methyl Injury to Rice (Oryza sativa)” (Biosci Biotechnol Biochem, 1999)

Tests used:
Oryza sativa [1] = test: Safener indices, ratio of compound effect of Oryza sativa (rice) growth rate to relieving activity against bensulfuron-methyl induced injury to Oryza sativa growth rate at 1 uM
Oryza sativa [2] = test: Effect on Oryza sativa (rice) assessed as growth rate at 10 uM relative to control; format: organism-based; conditions: in vivo
[3] = Hydrophobicity, log K of the compound; format: physicochemical; conditions: octanol/water
Oryza sativa [4] = test: Effect on Oryza sativa (rice) assessed as growth rate at 1 uM relative to control; format: organism-based; conditions: in vivo
Oryza sativa [5] = test: Safener indices, ratio of compound effect of Oryza sativa (rice) growth rate to relieving activity against bensulfuron-methyl induced injury to Oryza sativa growth rate at 10 uM
Oryza sativa [6] = test: Safener indices, ratio of compound effect of Oryza sativa (rice) growth rate to relieving activity against bensulfuron-methyl induced injury to Oryza sativa growth rate at 0.1 uM
Oryza sativa [7] = test: Relieving activity against bensulfuron-methyl induced injury to Oryza sativa (rice) assessed as growth rate at 10 uM (Rbv = 46 to 53%); format: functional
Oryza sativa [8] = test: Relieving activity against bensulfuron-methyl induced injury to Oryza sativa (rice) assessed as growth rate at 0.1 uM (Rbv = 46 to 53%); format: functional
Oryza sativa [9] = test: Effect on Oryza sativa (rice) assessed as growth rate at 0.1 uM relative to control; format: organism-based; conditions: in vivo
Oryza sativa [10] = test: Relieving activity against bensulfuron-methyl induced injury to Oryza sativa (rice) assessed as growth rate at 1 uM (Rbv = 46 to 53%); format: functional

Structure (SMILES): CCc1cccc(NC(=O)N[C@@H](C)c2ccccc2)c1
- Ratio (Oryza sativa [1]): 48
- Activity (Oryza sativa [2]): 86%
- log K [3]: 0.489
- Activity (Oryza sativa [4]): 94%
- Ratio (Oryza sativa [5]): 68
- Ratio (Oryza sativa [6]): 15
- Activity (Oryza sativa [7]): 82%
- Activity (Oryza sativa [8]): 58%
- Activity (Oryza sativa [9]): 100%
- Activity (Oryza sativa [10]): 72%

Structure (SMILES): CCc1ccc(NC(=O)N[C@H](C)c2ccccc2)cc1
- Ratio (Oryza sativa [1]): 24
- Activity (Oryza sativa [2]): 44%
- log K [3]: 0.487
- Activity (Oryza sativa [4]): 47%
- Ratio (Oryza sativa [5]): 32
- Ratio (Oryza sativa [6]): 15
- Activity (Oryza sativa [7]): 47%
- Activity (Oryza sativa [8]): 56%
- Activity (Oryza sativa [9]): 95%
- Activity (Oryza sativa [10]): 43%

Structure (SMILES): CCc1ccc(NC(=O)N[C@@H](C)c2ccccc2)cc1
- Ratio (Oryza sativa [1]): 62
- Activity (Oryza sativa [2]): 91%
- log K [3]: 0.487
- Activity (Oryza sativa [4]): 95%
- Ratio (Oryza sativa [5]): 72
- Ratio (Oryza sativa [6]): 7
- Activity (Oryza sativa [7]): 84%
- Activity (Oryza sativa [8]): 74%
- Activity (Oryza sativa [9]): 99%
- Activity (Oryza sativa [10]): 80%

Structure (SMILES): CC(C)c1ccccc1NC(=O)N[C@H](C)c1ccccc1
- Ratio (Oryza sativa [1]): 3
- Activity (Oryza sativa [2]): 17%
- log K [3]: 0.487
- Activity (Oryza sativa [4]): 101%
- Ratio (Oryza sativa [5]): 24
- Ratio (Oryza sativa [6]): -9
- Activity (Oryza sativa [7]): 30%
- Activity (Oryza sativa [8]): 43%
- Activity (Oryza sativa [9]): 103%
- Activity (Oryza sativa [10]): 48%

Structure (SMILES): Cc1ccccc1NC(=O)N[C@@H](C)c1ccccc1
- Ratio (Oryza sativa [1]): 21
- Activity (Oryza sativa [2]): 99%
- log K [3]: 0.337
- Activity (Oryza sativa [4]): 99%
- Ratio (Oryza sativa [5]): 58
- Ratio (Oryza sativa [6]): 5
- Activity (Oryza sativa [7]): 79%
- Activity (Oryza sativa [8]): 52%
- Activity (Oryza sativa [9]): 100%
- Activity (Oryza sativa [10]): 60%

Structure (SMILES): Cc1cccc(NC(=O)N[C@H](C)c2ccccc2)c1
- Ratio (Oryza sativa [1]): 22
- Activity (Oryza sativa [2]): 47%
- log K [3]: 0.374
- Activity (Oryza sativa [4]): 98%
- Ratio (Oryza sativa [5]): 29
- Ratio (Oryza sativa [6]): 10
- Activity (Oryza sativa [7]): 45%
- Activity (Oryza sativa [8]): 55%
- Activity (Oryza sativa [9]): 100%
- Activity (Oryza sativa [10]): 60%

Structure (SMILES): Cc1cccc(NC(=O)N[C@@H](C)c2ccccc2)c1
- Ratio (Oryza sativa [1]): 58
- Activity (Oryza sativa [2]): 100%
- log K [3]: 0.374
- Activity (Oryza sativa [4]): 100%
- Ratio (Oryza sativa [5]): 79
- Ratio (Oryza sativa [6]): 27
- Activity (Oryza sativa [7]): 89%
- Activity (Oryza sativa [8]): 63%
- Activity (Oryza sativa [9]): 99%
- Activity (Oryza sativa [10]): 79%

Structure (SMILES): Cc1ccc(NC(=O)N[C@H](C)c2ccccc2)cc1
- Ratio (Oryza sativa [1]): 41
- Activity (Oryza sativa [2]): 64%
- log K [3]: 0.367
- Activity (Oryza sativa [4]): 98%
- Ratio (Oryza sativa [5]): 46
- Ratio (Oryza sativa [6]): 9
- Activity (Oryza sativa [7]): 63%
- Activity (Oryza sativa [8]): 54%
- Activity (Oryza sativa [9]): 100%
- Activity (Oryza sativa [10]): 70%

Structure (SMILES): Cc1ccc(NC(=O)N[C@@H](C)c2ccccc2)cc1
- Ratio (Oryza sativa [1]): 73
- Activity (Oryza sativa [2]): 100%
- log K [3]: 0.367
- Activity (Oryza sativa [4]): 99%
- Ratio (Oryza sativa [5]): 82
- Ratio (Oryza sativa [6]): 45
- Activity (Oryza sativa [7]): 91%
- Activity (Oryza sativa [8]): 72%
- Activity (Oryza sativa [9]): 100%
- Activity (Oryza sativa [10]): 86%

Structure (SMILES): CCc1ccccc1NC(=O)N[C@H](C)c1ccccc1
- Ratio (Oryza sativa [1]): 8
- Activity (Oryza sativa [2]): 92%
- log K [3]: 0.422
- Activity (Oryza sativa [4]): 100%
- Ratio (Oryza sativa [5]): 47
- Ratio (Oryza sativa [6]): 1
- Activity (Oryza sativa [7]): 72%
- Activity (Oryza sativa [8]): 52%
- Activity (Oryza sativa [9]): 101%
- Activity (Oryza sativa [10]): 55%

Structure (SMILES): CCc1ccccc1NC(=O)N[C@@H](C)c1ccccc1
- Ratio (Oryza sativa [1]): 12
- Activity (Oryza sativa [2]): 95%
- log K [3]: 0.422
- Activity (Oryza sativa [4]): 100%
- Ratio (Oryza sativa [5]): 44
- Ratio (Oryza sativa [6]): 1
- Activity (Oryza sativa [7]): 71%
- Activity (Oryza sativa [8]): 51%
- Activity (Oryza sativa [9]): 100%
- Activity (Oryza sativa [10]): 57%

Structure (SMILES): CCc1cccc(NC(=O)N[C@H](C)c2ccccc2)c1
- Ratio (Oryza sativa [1]): 36
- Activity (Oryza sativa [2]): 36%
- log K [3]: 0.489
- Activity (Oryza sativa [4]): 71%
- Ratio (Oryza sativa [5]): 29
- Ratio (Oryza sativa [6]): 8
- Activity (Oryza sativa [7]): 42%
- Activity (Oryza sativa [8]): 54%
- Activity (Oryza sativa [9]): 97%
- Activity (Oryza sativa [10]): 59%
